{"source": "paper PMC6158578", "about": "“Optimization and Lead Selection of Benzothiazole Amide Analogs Toward a Novel Antimycobacterial Agent” (Frontiers in Microbiology, 2018)", "key": {"M. chimaera 1502055": {"test_system": "M. chimaera 1502055", "assay": "MIC, Middlebrook medium (7H9 + OADC, 7 days)", "assay_type": "cell-based", "conditions": "168 h; M. chimaera 1502055; read-out: MIC"}, "M. intracellulare 1956": {"test_system": "M. intracellulare 1956", "assay": "MIC, Middlebrook medium (7H9 + OADC, 7 days)", "assay_type": "cell-based", "conditions": "Mycobacterium intracellulare, 168 h; M. intracellulare 1956; read-out: MIC"}, "[1]": {"assay": "Mouse oral PK and tolerability", "assay_type": "in vivo, female CD-1 mice", "conditions": "oral 100 mg/kg"}, "S. aureus ATCC 29213": {"test_system": "S. aureus ATCC 29213", "assay": "MIC, spectrum of activity", "assay_type": "cell-based", "conditions": "Staphylococcus aureus, ATCC29213; S. aureus ATCC 29213; read-out: MIC"}, "[2]": {"test_system": "M. fortuitum (n = 11) clinical isolates", "assay": "MIC against rapid-growing NTM clinical isolates", "assay_type": "cell-based", "conditions": "M. fortuitum (n = 11)"}, "[3]": {"test_system": "M. peregrinum ATCC 700686", "assay": "MIC, broth microdilution with resazurin (MHB, 3 days)", "assay_type": "cell-based", "conditions": "Mycolicibacterium peregrinum, ATCC700686; M. peregrinum ATCC 700686; read-out: MIC"}, "M. abscessus 21": {"test_system": "M. abscessus 21", "assay": "MIC in MHB versus 7H9+OADC", "assay_type": "cell-based"}, "Solubility in corn oil": {"assay": "Solubility in corn oil", "conditions": "oil or lipid"}, "M. abscessus 1": {"test_system": "M. abscessus 1", "assay": "MIC in MHB versus 7H9+OADC", "assay_type": "cell-based"}, "M. abscessus ATCC 19977": {"test_system": "M. abscessus ATCC 19977", "assay": "MIC, broth microdilution with resazurin (MHB, 3 days)", "assay_type": "cell-based", "conditions": "Mycobacteroides abscessus, ATCC19977; M. abscessus ATCC 19977; read-out: MIC"}, "M. fortuitum 41": {"test_system": "M. fortuitum 41", "assay": "MIC, broth microdilution with resazurin (MHB, 3 days)", "assay_type": "cell-based", "conditions": "Mycolicibacterium fortuitum; M. fortuitum 41; read-out: MIC"}, "[4]": {"test_system": "mycolic acid transfer in Mabs ATCC19977", "assay": "Metabolic labeling with [14C]acetate", "assay_type": "cell-based, M. abscessus", "conditions": "2x and 10x MIC"}}}
{"smiles": "CC12CC3CC(C)(C1)CC(C(=O)Nc1nc4ccc(OC(F)(F)F)cc4s1)(C3)C2", "note": "[CRS400226]", "values": [{"measurement": "MIC", "setting": "M. chimaera 1502055", "value": 1, "unit": "µg/mL"}, {"measurement": "MIC", "setting": "M. intracellulare 1956", "value": 1, "unit": "µg/mL"}, {"measurement": "concentration at 1 h", "setting": "[1]; mouse, plasma, female CD-1 mice, 1 h, read-out: plasma level", "value": 2300, "unit": "ng/mL"}, {"measurement": "concentration at 8 h", "setting": "[1]; mouse, plasma, female CD-1 mice, 8 h, read-out: plasma level", "value": 2000, "unit": "ng/mL"}, {"measurement": "tolerability of oral dosing", "setting": "[1]; mice", "value": "highly tolerated"}, {"measurement": "MIC", "setting": "S. aureus ATCC 29213", "value": "> 64", "unit": "µg/mL"}, {"measurement": "MIC range", "setting": "[2]", "value": "0.12 to 0.5", "unit": "µg/mL"}, {"measurement": "MIC90", "setting": "[2]; Mycolicibacterium fortuitum, read-out: MIC90", "value": 0.5, "unit": "µg/mL"}, {"measurement": "MIC", "setting": "[3]", "value": "≤ 0.06", "unit": "µg/mL"}, {"measurement": "MIC", "setting": "M. abscessus 21; M. abscessus 21, 7H9 + OADC (5 mg/mL albumin)", "value": 8, "unit": "µg/mL"}, {"measurement": "MIC", "setting": "M. abscessus 21; M. abscessus 21, MHB", "value": 0.25, "unit": "µg/mL"}, {"measurement": "solubility", "setting": "Solubility in corn oil", "value": "≤ 250", "unit": "mg/mL"}, {"measurement": "MIC", "setting": "M. abscessus 1; M. abscessus 1, 7H9 + OADC (5 mg/mL albumin)", "value": 8, "unit": "µg/mL"}, {"measurement": "MIC", "setting": "M. abscessus 1; M. abscessus 1, MHB", "value": 0.25, "unit": "µg/mL"}, {"measurement": "MIC", "setting": "M. abscessus ATCC 19977", "value": 0.25, "unit": "µg/mL"}, {"measurement": "MIC", "setting": "M. fortuitum 41", "value": 0.12, "unit": "µg/mL"}, {"measurement": "effect on mycolic acid transfer to arabinogalactan and trehalose dimycolates", "setting": "[4]", "value": "concentration-dependent inhibition of mycolic acid transfer"}]}
